ChEMBL document CHEMBL6177984, “Pyrazolo[1,5-a]pyrimidine-Based Type-I Photosensitizer as an Efficient Pyroptosis Inducer for Tumor Ablation” (J Med Chem, 2025)
pIC50: −log10 of the molar value. Calls of active or inactive are those of the source. No cut-off for these calls is given here.

Experiments:
[1] = Dark cytotoxicity against human MDA-MB-231 cells assessed as cell viability incubated for 24 hrs by CCK8 assay; format: toxicity, cell-based
MDA-MB-231 [2] = assay: Photocytotoxicity in human MDA-MB-231 cells assessed as cell viability preincubated with compound for 1 hr followed by light irradiated with 400 to 700 nm 100 mW/cm^2 for 10 mins and measured after 24 hrs by CCK-8 assay; format: functional, cell-based; conditions: MDA-MB-231, light or radiation study
MDA-MB-231 [3] = assay: Photocytotoxicity in human MDA-MB-231 cells assessed as cell viability at 1 uM preincubated with compound for 1 hr followed by light irradiated with 400 to 700 nm 100 mW/cm^2 for 10 mins and measured after 24 hrs by CCK-8 assay; format: functional, cell-based; conditions: time 1510.0 min
[4] = Induction of ROS generation in BPS buffer assessed as increase in superoxide anion radical level at 10 uM irradiated with 525 nm 20 mW/cm2 light by DHR123 probe based fluorescence spectra analysis; format: functional

SMILES: CC[n+]1ccc(/C=C/c2ccc(-c3cnn4ccc(N5CCOCC5)nc34)s2)c2ccccc21
- IC50 at 24 h [1]: > 10 µM
- pIC50 (MDA-MB-231 [2]): 6.04

SMILES: CC[N+]1=C(/C=C/c2ccc(-c3cnn4ccc(N5CCOCC5)nc34)s2)C(C)(C)c2cc(I)ccc21
- IC50 at 24 h [1]: > 10 µM
- pIC50 (MDA-MB-231 [2]): 6.55
- Activity (MDA-MB-231 [3]): Active

SMILES: COC(=O)c1ccccc1C1c2ccc(N)cc2Oc2cc(N)ccc21
- Activity [4]: Active

SMILES: C[N+]1=C(/C=C/c2ccc(-c3cnn4ccc(N5CCOCC5)nc34)s2)C(C)(C)c2ccccc21
- IC50 at 24 h [1]: > 10 µM
- pIC50 (MDA-MB-231 [2]): 6.48
- Activity (MDA-MB-231 [3]): Active
